Experimental findings from publication PMC5238433 (Scientific Reports, 2017) are described below.

Entries after “also recorded” stand apart in the source; their conditions may differ.

Assay [1] deals with APJ homodimer. In words: MALDI-TOF MS of immunoprecipitated APJ complex after treatment with HIV TAT-TMD interference peptides. The note with it: peptide 4 μM, 60 min, 37 °C; for species detected by MALDI-TOF MS / effect of peptide on APJ homodimerization: cells transfected with APJ, anti-APJ immunoprecipitation, MALDI-TOF linear positive mode, mass range 4–10 kDa, sinapic acid; for binding to APJ (peptides encoding TMDs, MS): MALDI-TOF. It counts as binding, human. From the text:
TMDs are important for the formation of head-to-head interfaces in class A GPCR dimers. To identify dimerization interfaces in the seven TMDs of APJ, the effects of cell-penetrating interference peptides (containing the sequence of the hydrophobic transmembrane helices) on APJ homodimerization were examined by MS.
Figure 5 The effects of interference peptides on apelin receptor (APJ) homodimerization as measured by matrix assisted laser desorption […] time-of-flight (MALDI-TOF) mass spectrometry.
The identity of the TMD peptide sequences was analyzed with liquid chromatography (LC)-MS.
MS was performed to identity APJ dimer interfaces in samples treated with TMD peptides. Cells were transfected with APJ and, 48 h later, treated with or without the indicated HIV TAT-TMD fused peptides (4 μM) for 60 min at 37 °C. Extracted proteins were immunoprecipitated using an anti-APJ antibody. Protein A/G PLUS-agarose beads were incubated with proteins for 2 h and washed four times with lysis buffer. The APJ complex was eluted from beads as described previously. Then, the endogenous APJ complex was analyzed with an AXIMA matrix-assisted laser desorption/ionization time-of-flight (MALDI-TOF) system (Shimazdu) in linear positive mode. The mass range was 4–10 kDa and the matrix was Sinapic Acid (SA), 10 mg/ml (50% acetonitrile (ACN), 50% H2O, 0.1% […] (TFA)). The results were calibrated with a Shimadzu MALDI calibration kit (Laser BioLabs).

Assay [2] concerns APJ dimer (APJ-Rluc / APJ-EGFP). Description: BRET, effect of interference peptides on APJ homodimers. It counts as cell-based, human. The note with it: for effect on APJ dimer BRET signals / reduction of APJ dimer BRET signals: CHO cells, APJ-Rluc:APJ-EGFP 1:3, peptide 4 μM, 37 °C, four independent experiments in triplicate; for disruption of APJ (homo)dimerization (statement in words): interference peptides 4 μM, in vitro, by BRET and MS; for reduction of APJ dimer BRET signals: P < 0.01, one range for TMD1, 2, 3 and 4. From the text: Figure 7 The effect of interference peptides on apelin receptor (APJ) dimers. […] BRET[1] was detected as described above.
In general terms: BRET reads energy transfer from a luciferase to a nearby fluorophore.

Assay [3] has as its system APJ homodimers (APJ-Rluc / APJ-EGFP). Description: BRET, effect of agonist/antagonist treatment on APJ homodimerization. It is filed as cell-based, human. To be noted: CHO cells co-expressing APJ-Rluc and APJ-EGFP (1:1); concentration not given; four independent experiments in triplicate. How it is done: We further assessed APJ interactions by co-immunoprecipitation (Co-IP), BRET[1], and Förster resonance energy transfer (FRET). […] BRET studies were performed to confirm APJ homodimerization.
Figure 2 Assessment of apelin receptor (APJ) dimerization using co-immunoprecipitation (Co-IP) and bioluminescence resonance energy transfer (BRET) assays. (A) Assessment of APJ homodimerization with Co-IP. Chinese hamster ovary (CHO) cells were either not transfected (mock) or transfected with HA-APJ, Myc-APJ, or both (co-transfection). HA-APJ and Myc-APJ were also mixed (mix). Immunoprecipitated samples were resolved by SDS-PAGE and immunoblotted with an anti-Myc antibody (upper panel). […] (B) Assessment of APJ homodimerization with BRET[1]. (C) BRET saturation curves. (D) Assessment of effects of agonist-treatment on dimerization by BRET[1]. For BRET, four independent experiments were performed with triplicate samples and the results were expressed as the mean ± SEM of four experiments ([…] versus control group; NS, not significant versus unstimulated cells).
(§1) To monitor constitutive APJ interactions, CHO cells were transfected with APJ-Rluc and APJ-EGFP plasmids at a ratio of 1:1, 1:2, 1:3, 1:4, 1:5, and 1:6 to express a constant amount of donor-labeled protein with increasing amounts of acceptor-labeled protein. At 24 h post-transfection, cells were trypsinized and plated on a 96 well microplate for 24 h in HEPES-buffered phenol red-free medium (Invitrogen, Life Technologies). Coelenterazine h (5 μM; Promega) was added for BRET measurements using a Tristar LB941 plate reader (Berthold) with an Rluc filter (400–475 nm) and a EGFP filter (500–550 nm). To monitor the induced interactions of APJ, BRET signals were measured as described above, with slight modifications. […] To measure the effects of interference peptides on APJ dimers, CHO cells were co-transfected with APJ-Rluc and APJ-EGFP (1:3) and incubated with interference peptides corresponding to TMD1, TMD2, TMD3, TMD4, TMD5, TMD6, and TMD7 at 37 °C (4 μM), and BRET[1] detected as described above.

Assay [4] deals with APJ dimers. Description: BiFC-BRET, Gα-Rluc8, APJ-VN173 and APJ-VC155, G protein activation by APJ dimers. It is filed as cell-based, human.
Source text: To explore the novel signaling of APJ dimers, we examined the signaling of APJ dimers using BiFC-BRET. […] Cells expressing Gα-Rluc8 and APJ-Venus served as a positive control, and two negative controls (Gα-Rluc8 and APJ-VN173, Gα-Rluc8 and APJ-VC155A) were also introduced. […] (Fig. S5). […] In addition, we have measured the expression levels of donor[23] and acceptor before experiment (Fig. 10).
Kinetics of ligand-induced BRET between Gα-Rluc8 (8 subtypes), APJ-VN173, and APJ-VC155. […] (A) Gαi1-Rluc8, APJ-VN173, and APJ-VC155; (B) Gαi2-Rluc8, APJ-VN173, and APJ-VC155; (C) Gαi3-Rluc8, APJ-VN173, and APJ-VC155; (D) Gαq-Rluc8, APJ-VN173, and APJ-VC155; (E) Gαs-Rluc8, APJ-VN173, and APJ-VC155; (F) Gαo-Rluc8, APJ-VN173, and APJ-VC155; (G) Gα12-Rluc8, APJ-VN173, and APJ-VC155; H. Gα13-Rluc8, APJ-VN173, and APJ-VC155.
APJ-VN173 and APJ-VC155 were generated by fusing either the N-terminal fragment of Venus (Venus N: amino acids 1–172) or the C-terminal fragment of Venus (Venus C: amino acids 156–239) to the C-terminus of the wild-type (wt) full-length apelin receptor. Gαi1-Rluc8, Gαi2-Rluc8, Gαi3-Rluc8, Gαq-Rluc8, Gαoa-Rluc8, and Gαs-Rluc8, pET-21a(+)-GFP, FLAG-BirA-APJ, and HA-AP-APJ were constructed as described previously.
as §1

Setting [5] is: APJ dimers (APJ-VN173 + APJ-VC155), CHO cells, 1 μM apelin-13, 30 min.

Consider “VSSTTVGFVVPFTIMLTCYFFIAYGRKKRRQRRR [TMD5, HIV TAT-fused interference peptide derived from human APJ transmembrane domain 5]”, for which, in assay [1], the “species detected by MALDI-TOF MS / effect of peptide on APJ homodimerization” value was “lacked the effect demonstrated by TMD1, 2, 3, and 4; also recorded: TMD5, APJ, and APJ dimers were detected”. In assay [2], the “effect on APJ dimer BRET signals” value is on record as “no significant effect”; the “disruption of APJ (homo)dimerization (statement in words)” value (shortened to “disruption of APJ (homo)dimerization”) was “but not TMD5, 6, and 7, disrupted APJ dimerization”.

For “YGRKKRRQRRRVSGAVATAVLWVLAALLAMPVMV [TMD4, HIV TAT-fused interference peptide derived from human APJ transmembrane domain 4]”, in assay [1], the “species detected by MALDI-TOF MS / effect of peptide on APJ homodimerization” value was “TMD4, TMD4 dimers, TMD4 tetramers, APJ, [APJ + TMD4], APJ dimers, and [APJ + TMD4] dimers were detected”; the “binding to APJ (peptides encoding TMDs, MS)” value (from here on “binding to APJ”) is “can bind to APJ”. Further, in assay [2], the “effect on APJ dimer BRET signals” value was “significantly reduced APJ dimer BRET signals”, the “reduction of APJ dimer BRET signals” value is given as 55–75% and the “disruption of APJ (homo)dimerization” value is recorded as “disrupted APJ dimerization; also recorded: can effectively disrupt the formation of APJ homodimers; also recorded: disrupted APJ homodimerization in vitro”.

On to [Ala13]apelin-13, for which, in assay [3], the “BRET signal versus unstimulated cells (APJ homodimer formation)” value is “not significantly different to those of unstimulated cells”.

As for “YGRKKRRQRRRFIASLAVADLTFVVTLPLWATYT [TMD2, HIV TAT-fused interference peptide derived from human APJ transmembrane domain 2]”, in assay [1], the “species detected by MALDI-TOF MS / effect of peptide on APJ homodimerization” value is “TMD2, TMD2 dimers, TMD2 tetramers, APJ, [APJ + TMD2], APJ dimers, and [APJ + TMD2] dimers were detected”; the “binding to APJ” value is given as “can bind to APJ”. Also, in assay [2], the “effect on APJ dimer BRET signals” value was “significantly reduced APJ dimer BRET signals”, the “reduction of APJ dimer BRET signals” value is given as 55–75% and the “disruption of APJ (homo)dimerization” value is reported as “disrupted APJ dimerization; also recorded: can effectively disrupt the formation of APJ homodimers; also recorded: disrupted APJ homodimerization in vitro”.

Take apelin-13: in assay [3], the “BRET signal versus unstimulated cells (APJ homodimer formation)” value was “not significantly different to those of unstimulated cells”. For the same substance, in assay [4] (setting [5]), the “G protein activation, Gα12” value was “not Gαi1, Gαi2, Gαs, Gα12, Gα13, and Gαo”; the “G protein activation, Gα13” value is “not Gαi1, Gαi2, Gαs, Gα12, Gα13, and Gαo”; the “G protein activation, Gαi1” value was “not Gαi1, Gαi2, Gαs, Gα12, Gα13, and Gαo”; the “G protein activation, Gαi2” value is “not Gαi1, Gαi2, Gαs, Gα12, Gα13, and Gαo”. In assay [4] (setting [5]), the “G protein activation, Gαi3” value is “activate only Gαi3 and Gαq”; the “G protein activation, Gαo” value is “not Gαi1, Gαi2, Gαs, Gα12, Gα13, and Gαo”; the “G protein activation, Gαq” value was “activate only Gαi3 and Gαq”; the “G protein activation, Gαs” value was “not Gαi1, Gαi2, Gαs, Gα12, Gα13, and Gαo”. Also, the “ligand-induced BRET change, cells expressing APJ tagged with VN173 and VC155” value in assay [4] (Gα-Rluc8 (8 subtypes), CHO cells, 1 μM apelin-13) is “an increase in BRET was observed only for Gαi3 and Gαq”. The “ligand-induced BRET change, negative controls” value in assay [4] (Gα-Rluc8 with APJ-VN173 only or APJ-VC155 only, 1 μM apelin-13) is listed as “No changes in BRET were observed”.

Turning to “LMNIFPYCTCISYVNSCLNPFLYYGRKKRRQRRR [TMD7, HIV TAT-fused interference peptide derived from human APJ transmembrane domain 7]”, the “species detected by MALDI-TOF MS / effect of peptide on APJ homodimerization” value in assay [1] is “lacked the effect demonstrated by TMD1, 2, 3, and 4; also recorded: TMD7, APJ, and APJ dimers were detected”. Also, in assay [2], the “effect on APJ dimer BRET signals” value is listed as “no significant effect”; the “disruption of APJ (homo)dimerization” value is “but not TMD5, 6, and 7, disrupted APJ dimerization”.

On to “YGRKKRRQRRRRLLSIIVVLVVTFALCWMPYHLV [TMD6, HIV TAT-fused interference peptide derived from human APJ transmembrane domain 6]”, for which the “species detected by MALDI-TOF MS / effect of peptide on APJ homodimerization” value in assay [1] was “lacked the effect demonstrated by TMD1, 2, 3, and 4; also recorded: TMD6, APJ, and APJ dimers were detected”. Besides, in assay [2], the “effect on APJ dimer BRET signals” value is reported as “no significant effect”; the “disruption of APJ (homo)dimerization” value was “but not TMD5, 6, and 7, disrupted APJ dimerization”.

Turning to “IFVNMYASVFCLTGLSFDRYLAIYGRKKRRQRRR [TMD3, HIV TAT-fused interference peptide derived from human APJ transmembrane domain 3]”, in assay [1], the “species detected by MALDI-TOF MS / effect of peptide on APJ homodimerization” value is “TMD3, TMD3 dimers, TMD3 tetramers, APJ, [APJ + TMD3], APJ dimers, and [APJ + TMD3] dimers were detected”; the “binding to APJ” value is “can bind to APJ”. For the same substance, in assay [2], the “effect on APJ dimer BRET signals” value is given as “significantly reduced APJ dimer BRET signals”, the “reduction of APJ dimer BRET signals” value is reported as 55–75% and the “disruption of APJ (homo)dimerization” value is “disrupted APJ dimerization; also recorded: can effectively disrupt the formation of APJ homodimers; also recorded: disrupted APJ homodimerization in vitro”.
